Values joined by “and” are separate entries in the source; they are usually repeats but may differ in a detail not shown here. Equal values may be shown once. “Also recorded” adds a separate entry of the source.
Legend:
[1] = test system: normochromatic erythrocytes; assay: Flow cytometric micronucleus assay (FITC-anti-CD71/propidium iodide), normochromatic erythrocytes, MMS-treated mice; assay type: in vivo, male BALB/c mice; details: for Average Freq. (%) MN-NCE: average of 5 mice; for Freq. (%) MN-NCE / No. MN-NCE / No. NCE: individual mouse
Experimental: (§1) Optimum flow cytometer settings are extremely important in this process. The fluorescent signals of the stained micronucleated normochromatic erythrocyte and micronucleated reticulocyte populations should be clearly resolved from those of the normochromatic erythrocyte and reticulocyte cell populations. In accordance with the method of the present invention, the analyses described herein were carried out with a single laser flow cytometer (Fac Star^PLUS ™, Becton Dickenson). The 5 W argon ion laser was tuned to provide 488 nm excitation. Cells were passed through the laser at an average rate of 2,500-8,000 erythrocytes/second. One embodiment of the invention is to use a 20μ elliptical beam that is focused at the sample stream. The results and analyses described herein were obtained with said beam. As known to those skilled in the art, different beam shapes are also acceptable.
(§2) The flow cytometer is equipped with four photomultiplier tubes (PMTs) which are used to sense forward light scatter, side light scatter, red fluorescence signals, and green fluorescence signals. Proper filters must be placed before the green and red photomultiplier tubes. In accordance with the methods of the present invention, adequate fluorescent signals can be obtained if a 520 nm long pass filter and a 555 nm short pass filter is placed before the green PMT. In accordance with the methods of the present invention, a 580 nm long pass filter in front of the red PMT is desirable. This is a preferred configuration that allows optimal fluorescence detection. However, as known to those skilled in the art, other filter sets may be acceptable. The signals received by the PMTs and the light scatter photodiode are processed by an in-line computer and cell populations of interest are quantitated (see, e.g., FIG. 1) using software conventional to the art. The data may be acquired and processed as either logarithmic or linear signals. In one configuration of the invention, log data was acquired for the forward light scatter, side scatter, as well as red and green fluorescence peak height signals.
(§3) Erythrocytes were isolated by gating on forward and side light scatter parameters. The stop mode of each analysis was reached when 500,000 total erythrocytes were interrogated. A window was set up corresponding to cells low in both fluorescence due to the labelled antibody with binding specificity for a surface marker for erythroblasts/reticulocytes (e.g., anti-CD71 antibody) and fluorescence due to the nucleic acid staining dye (e.g., propidium iodide), such as for detecting normochromatic erythrocytes in the erythrocyte population. A second gate was used to define cells low in anti-CD71 fluorescence and high in propidium iodide fluorescence, such as for detecting micronucleated normochromatic erythrocytes in the erythrocyte population. Another region corresponding to cells which were high in anti-CD71 fluorescence and low in propidium iodide fluorescence, such as for detecting reticulocytes in the erythrocyte population. A fourth region corresponding to cells which were high in both anti-CD71 fluorescence and in propidium iodide fluorescence was defined for detecting micronucleated reticulocytes in the erythrocyte population. Having defined these regions, the frequency of reticulocytes, micronucleated reticulocytes, micronucleated normochromatic erythrocytes, and normochromatic erythrocytes were automatically determined by the flow cytometry software.
(§4) Propidium iodide and FITC have been employed to simultaneously label nucleic acids and cell surface antigens in human B-cell lymphomas (Kruth et al., 1981, Cancer Res. 41:4895-4899; Montecucco et al., 1985, Basic Appl. Histochem. 29:275-2821). In the method according to the present invention the combined use of a nucleic acid staining dye, such as propidium iodide, and FITC-antibody labeling is utilized to differentially stain micronucleated reticulocytes. […]

[2] = test system: reticulocytes; assay: Flow cytometric micronucleus assay (FITC-anti-CD71/propidium iodide), reticulocytes, MMS-treated mice; assay type: in vivo, male BALB/c mice; details: for Average Freq. (%) MN-RET: average of 5 mice; for Freq. (%) MN-RET / No. MN-RET / No. RET: individual mouse
Experimental: as §1, §2, §3, §4

[3] = test system: micronuclei; details: previous observations, different methodologies; cited from earlier work
[4] = test system: micronucleated polychromatic erythrocytes; details: administered 2 hours before clastogen exposure; cited from earlier work
[5] = 0-72 h after 100 mg MMS/kg i.p., in words

In the case of `COS(C)(=O)=O` [MMS, methyl methanesulfonate], the “micronuclei frequency in the mature normochromatic erythrocyte population, time course” value [1, 5] is reported as “rise gradually over the course of the experiment; also recorded: rose slightly”, the “Average Freq. (%) MN-NCE” value ([1]; 24 h after 100 mg MMS/kg i.p.) is reported as 0.26% and the “Freq. (%) MN-NCE” value ([1]; 24 h after 100 mg MMS/kg i.p.) is reported as 0.25% and 0.26% and 0.23% and 0.28%. For the same compound, the “No. MN-NCE” value ([1]; 24 h after 100 mg MMS/kg i.p.) was 1244 and 1287 and 1145 and 1254 and 1391, the “No. NCE” value ([1]; 24 h after 100 mg MMS/kg i.p.) was 490949 and 490112 and 488089 and 487462 and 490011 and the “Average Freq. (%) MN-NCE” value ([1]; 40 h after 100 mg MMS/kg i.p.) was 0.28%. For the same compound, the “Freq. (%) MN-NCE” value ([1]; 40 h after 100 mg MMS/kg i.p.) was 0.29% and 0.26% and 0.24% and 0.30%, the “No. MN-NCE” value ([1]; 40 h after 100 mg MMS/kg i.p.) was 1405 and 1285 and 1178 and 1445 and 1458 and the “No. NCE” value ([1]; 40 h after 100 mg MMS/kg i.p.) was 490511 and 485301 and 486302 and 484237 and 492350. The “Average Freq. (%) MN-NCE” value ([1]; 48 h after 100 mg MMS/kg i.p.) was 0.30%, the “Freq. (%) MN-NCE” value ([1]; 48 h after 100 mg MMS/kg i.p.) was 0.31% and 0.32% and 0.27% and the “No. MN-NCE” value ([1]; 48 h after 100 mg MMS/kg i.p.) was 1515 and 1538 and 1298 and 1517 and 1339. For the same compound, the “No. NCE” value ([1]; 48 h after 100 mg MMS/kg i.p.) was 487164 and 481651 and 480648 and 476364 and 490250, the “Average Freq. (%) MN-NCE” value ([1]; 72 h after 100 mg MMS/kg i.p.) was 0.34% and the “Freq. (%) MN-NCE” value ([1]; 72 h after 100 mg MMS/kg i.p.) was 0.34% and 0.36% and 0.35% and 0.33%. For the same compound, the “No. MN-NCE” value ([1]; 72 h after 100 mg MMS/kg i.p.) was 1593 and 1573 and 1607 and 1628 and 1575, the “No. NCE” value ([1]; 72 h after 100 mg MMS/kg i.p.) was 473052 and 462539 and 450096 and 461882 and 475141 and the “frequency of micronucleated reticulocytes, time course” value [2, 5] was “rise sharply over the course of the first 40 hours; also recorded: rise and fall quickly”. The “Average Freq. (%) MN-RET” value ([2]; 24 h after 100 mg MMS/kg i.p.) was 0.81%, the “Freq. (%) MN-RET” value ([2]; 24 h after 100 mg MMS/kg i.p.) was 0.54% and 0.93% and 0.69% and 1.31% and 0.58% and the “No. MN-RET” value ([2]; 24 h after 100 mg MMS/kg i.p.) was 46 and 88 and 80 and 162 and 55. The “No. RET” value ([2]; 24 h after 100 mg MMS/kg i.p.) was 8531 and 9390 and 11532 and 12234 and 9391, the “Average Freq. (%) MN-RET” value ([2]; 40 h after 100 mg MMS/kg i.p.) was 4.20% and the “Freq. (%) MN-RET” value ([2]; 40 h after 100 mg MMS/kg i.p.) was 4.41% and 4.18% and 4.89% and 3.81% and 3.72%. For the same compound, the “No. MN-RET” value ([2]; 40 h after 100 mg MMS/kg i.p.) was 386 and 592 and 652 and 581 and 262, the “No. RET” value ([2]; 40 h after 100 mg MMS/kg i.p.) was 8373 and 13570 and 12679 and 14533 and 6785 and the “Average Freq. (%) MN-RET” value ([2]; 48 h after 100 mg MMS/kg i.p.) was 2.25%. The “Freq. (%) MN-RET” value ([2]; 48 h after 100 mg MMS/kg i.p.) was 2.92% and 2.09% and 2.10% and 1.86% and 2.29%, the “No. MN-RET” value ([2]; 48 h after 100 mg MMS/kg i.p.) was 355 and 366 and 396 and 431 and 211 and the “No. RET” value ([2]; 48 h after 100 mg MMS/kg i.p.) was 11794 and 17187 and 18484 and 22687 and 8990. For the same compound, the “Average Freq. (%) MN-RET” value ([2]; 72 h after 100 mg MMS/kg i.p.) was 0.41%, the “Freq. (%) MN-RET” value ([2]; 72 h after 100 mg MMS/kg i.p.) was 0.43% and 0.40% and 0.46% and 0.34% and the “No. MN-RET” value ([2]; 72 h after 100 mg MMS/kg i.p.) was 112 and 147 and 224 and 150 and 82. The “No. RET” value ([2]; 72 h after 100 mg MMS/kg i.p.) was 25838 and 36327 and 48913 and 36940 and 23744 and the “time of maximum response (micronuclei formation)” value [3] was 36 h.
In the case of chlorophyllin, the “effect on incidence of micronucleated polychromatic erythrocytes induced by gamma radiation” value [4] is given as “reduced the incidence of micronucleated polychromatic erythrocytes”.
